Data from patent US12103915B2, “TEAD inhibitors and methods of uses thereof” (Insilico Medicine IP Limited, priority 2022, dated 2024).

Assays:
[1] = target: TEAD1 (Homo sapiens, UniProt P28347); experiment: Thermal shift assay TEAD1; format: binding
Protocol: (§1) Example B: Thermal Shift Assay
(§2) 1) Prepare a fresh dilution of Protein Thermal Shift™ Dye (Applied Biosystems, 1000×) to 8× by […].
(§3) 2) To ensure the same DMSO concentration, the compounds were diluted as follows: Prepare 10 mM stock solution of compounds;
(§4) The final DMSO concentration was 0.1%
(§5) 10 μM: Diluting stock solution to 100 μM by using PBS.
(§6) 1 μM: Diluting stock solution to 1 mM by using DMSO, then dilute to 10 μM by using PBS.
(§7) TEAD1: the stock concentration was 2.9 mg/ml; the final concentration was 0.2 mg/ml. TEAD2: the stock concentration was 1.8 mg/ml; the final concentration was 0.08 mg/ml.
(§8) 4) Place the appropriate reaction plate or tubes on ice, then prepare the protein melt reactions:
(§9) 5) Pipet each reaction up and down 10 times to mix well.
(§10) 6) Seal the plate with MicroAmp™ Optical Adhesive Film, spin it at 1000 rpm for 1 minute.
(§11) 7) Set up and run on the qPCR instrument.
(§12) Using thermal Shift™ Software v1.3 to analysis.

[2] = target: TEAD4 (Homo sapiens, UniProt Q15561); experiment: Thermal shift assay TEAD4; format: binding
Chain of TEAD4 (Q15561 whole entry, species assumed): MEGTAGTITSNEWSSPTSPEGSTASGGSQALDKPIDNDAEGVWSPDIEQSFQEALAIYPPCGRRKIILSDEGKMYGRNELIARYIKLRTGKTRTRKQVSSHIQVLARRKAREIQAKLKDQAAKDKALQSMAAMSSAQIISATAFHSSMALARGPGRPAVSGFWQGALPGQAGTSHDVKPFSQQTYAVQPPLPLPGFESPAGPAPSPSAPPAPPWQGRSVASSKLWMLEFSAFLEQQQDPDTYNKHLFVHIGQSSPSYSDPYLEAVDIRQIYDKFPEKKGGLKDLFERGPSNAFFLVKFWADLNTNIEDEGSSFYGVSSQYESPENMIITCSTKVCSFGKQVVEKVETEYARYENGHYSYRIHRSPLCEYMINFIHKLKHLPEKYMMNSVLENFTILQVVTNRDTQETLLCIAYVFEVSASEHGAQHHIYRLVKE
Protocol: as §1, §2, §3, §4, §5, §6
TEAD4: the stock concentration was 2.3 mg/ml; the final concentration was 0.1 mg/ml.
as §8, §9, §10, §11, §12

[3] = target: TEAD3 (Homo sapiens, UniProt Q99594); experiment: Thermal shift assay TEAD3; format: binding
Chain of TEAD3 (Q99594 whole entry, species assumed): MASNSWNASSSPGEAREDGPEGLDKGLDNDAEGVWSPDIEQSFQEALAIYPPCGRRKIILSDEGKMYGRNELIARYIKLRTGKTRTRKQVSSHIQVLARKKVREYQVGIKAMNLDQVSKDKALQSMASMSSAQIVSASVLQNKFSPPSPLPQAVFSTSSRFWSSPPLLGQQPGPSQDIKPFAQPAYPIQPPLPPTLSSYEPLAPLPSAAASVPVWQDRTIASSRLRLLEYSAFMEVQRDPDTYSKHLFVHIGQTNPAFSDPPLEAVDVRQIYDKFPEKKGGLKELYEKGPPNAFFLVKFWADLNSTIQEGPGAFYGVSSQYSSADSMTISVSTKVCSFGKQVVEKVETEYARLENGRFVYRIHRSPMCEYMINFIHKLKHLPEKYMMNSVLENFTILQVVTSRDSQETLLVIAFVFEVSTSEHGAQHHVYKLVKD
Protocol: as §1, §2, §3, §4, §5, §6
TEAD3: the stock concentration was 2.4 mg/ml; the final concentration was 0.1 mg/ml.
as §8, §9, §10, §11, §12

[4] = target: TEAD2 (Homo sapiens, UniProt Q15562); experiment: Thermal shift assay TEAD2; format: binding
Chain of TEAD2 (Q15562 whole entry, species assumed): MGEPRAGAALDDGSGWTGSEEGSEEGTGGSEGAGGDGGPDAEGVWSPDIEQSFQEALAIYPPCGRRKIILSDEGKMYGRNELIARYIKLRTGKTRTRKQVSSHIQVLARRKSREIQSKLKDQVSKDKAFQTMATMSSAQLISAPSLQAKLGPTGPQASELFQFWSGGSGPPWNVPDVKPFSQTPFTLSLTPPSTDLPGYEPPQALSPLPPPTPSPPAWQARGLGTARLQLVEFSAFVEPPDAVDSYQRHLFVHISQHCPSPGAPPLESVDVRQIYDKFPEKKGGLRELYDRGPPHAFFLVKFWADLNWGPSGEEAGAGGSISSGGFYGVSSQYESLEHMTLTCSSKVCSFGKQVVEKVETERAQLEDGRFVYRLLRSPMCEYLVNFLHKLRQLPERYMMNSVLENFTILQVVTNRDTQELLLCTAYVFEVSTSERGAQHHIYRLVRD
Protocol: as §1, §2, §3, §4, §5, §6, §7, §8, §9, §10, §11, §12

[5] = system: NCI-H226 cells; experiment: Cell growth assay (CellTiter-Glo); format: cell-based, human; settings: Homo sapiens, NCI-H226, 168 h, 7 days treatment, CellTiter-Glo luminescence, read-out: H226 CTG IC50
Protocol: Example A: Cell Growth Assay
CellTiter-Glo reagent (CTG reagent, Promega, G7573).
[…] Also seeding an extra plate as Day 0 control measurement. The microplates were incubated at 37° C., 5% CO2 overnight.
Compounds were 3-fold serial diluted in DMSO and final top-concentration was […], 10 points. 0.3% DMSO as vehicle control. In addition, […] of CTG reagent was added into the extra plate and incubated at room temperature for 30 minutes and detected luminescence signals as Day 0 control by using EnVision (PerkinElmer, 2104 Mutilabel Reader).
Incubated other compounds treated plates at 37° C. for another 7 days and […] of CTG reagent was added into the plates and incubated at room temperature for 30 minutes and detected luminescence signals.
Day 0 luminescence signals were used as negative control or baseline. • Signalday0=average luminescence signals of Day 0 control cells. • Signalblank control=average luminescence signals of blank control. • SignalDMSO vehicle control=average luminescence signals of Day 7 DMSO vehicle control cells. • Signalcpds treatment=luminescence signals of Day 7 compounds treatment cells. Inhibition %=1−(Signalcpds treatment−Signalblank control)/(SignalDMSO vehicle control−Signalblank control)*100.
(Inhibitory concentration 50% (IC50) and maximum inhibition % were calculated using dose response curves.

Chain of TEAD1 (P28347 whole entry, species assumed): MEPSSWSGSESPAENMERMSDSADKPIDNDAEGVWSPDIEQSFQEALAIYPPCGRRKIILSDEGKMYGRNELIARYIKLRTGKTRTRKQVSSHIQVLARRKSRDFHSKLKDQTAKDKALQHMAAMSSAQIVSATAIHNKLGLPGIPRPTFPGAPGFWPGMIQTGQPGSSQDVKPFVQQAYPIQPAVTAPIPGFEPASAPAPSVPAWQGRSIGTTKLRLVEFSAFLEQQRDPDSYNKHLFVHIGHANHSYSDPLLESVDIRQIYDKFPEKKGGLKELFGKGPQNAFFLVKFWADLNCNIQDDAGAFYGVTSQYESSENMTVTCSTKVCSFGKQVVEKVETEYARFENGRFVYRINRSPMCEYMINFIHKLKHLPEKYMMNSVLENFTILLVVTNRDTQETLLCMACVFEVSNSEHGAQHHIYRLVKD

CC(C)NC(=O)[C@@H]1C[C@H]1c1cc(-c2ccc(C(F)(F)F)cc2)cc2c1cnn2C (racemic) [Example 27]
TEAD1 ΔTm [1]: 0.6 °C
TEAD4 ΔTm [2]: 0.6 °C
TEAD3 ΔTm [3]: 0.3 °C
TEAD2 ΔTm [4]: 0.5 °C
IC50 [5]: 100 to 500 nM

CC(NC(=O)[C@@H]1C[C@H]1c1cc(-c2ccc(C(F)(F)F)cc2)cc2c1cnn2C)c1ccccn1 (mixture of isomers) [Example 28]
TEAD1 ΔTm [1]: 3.7 °C
TEAD4 ΔTm [2]: 2.4 °C
TEAD3 ΔTm [3]: 0.5 °C
TEAD2 ΔTm [4]: 0.5 °C
IC50 [5]: 100 to 500 nM

COCCNC(=O)[C@@H]1C[C@H]1c1cc(-c2ccc(C(F)(F)F)cc2)cc2c1cnn2C (racemic) [Example 30]
TEAD1 ΔTm [1]: 1.6 °C
TEAD4 ΔTm [2]: 0.9 °C
TEAD3 ΔTm [3]: 0.1 °C
TEAD2 ΔTm [4]: 0.8 °C
IC50 [5]: 100 to 500 nM

Cn1ncc2c([C@@H]3C[C@H]3C(=O)N3CC(O)C3)cc(-c3ccc(C(F)(F)F)cc3)cc21 (racemic) [Example 31]
TEAD1 ΔTm [1]: 3 °C
TEAD4 ΔTm [2]: 2.8 °C
TEAD3 ΔTm [3]: 0 °C
TEAD2 ΔTm [4]: 2.7 °C
IC50 [5]: 100 to 500 nM

CNC(=O)[C@@H]1C[C@H]1c1cc(-c2ccc(C(F)(F)F)cc2)cc2c1cnn2C(F)F (racemic) [Example 32]
TEAD1 ΔTm [1]: 2.1 °C
TEAD4 ΔTm [2]: 1.3 °C
TEAD3 ΔTm [3]: 0.2 °C
TEAD2 ΔTm [4]: 0.9 °C
IC50 [5]: 100 to 500 nM

CNC(=O)[C@@H]1CC1c1cc(-c2ccc(OC(F)(F)F)cc2)cc2cn(C)nc12 (mixture of isomers) [Example 33]
TEAD1 ΔTm [1]: 4 °C
TEAD4 ΔTm [2]: 6.5 °C
TEAD3 ΔTm [3]: 0.6 °C
TEAD2 ΔTm [4]: 6.7 °C
IC50 [5]: < 100 nM

CNC(=O)[C@@H]1CC1c1cc(Oc2ccc(C(F)(F)F)cc2)cc2cn(C)nc12 (mixture of isomers) [Example 34]
TEAD1 ΔTm [1]: 8.5 °C
TEAD4 ΔTm [2]: 10.3 °C
TEAD3 ΔTm [3]: 6.6 °C
TEAD2 ΔTm [4]: 12.7 °C
IC50 [5]: < 100 nM

Cn1ncc2c(C3C[C@H]3C(N)=O)cc(Oc3ccc(C(F)(F)F)cc3)cc21 (mixture of isomers) [Example 35]
TEAD1 ΔTm [1]: 5.4 °C
TEAD4 ΔTm [2]: 6.1 °C
TEAD3 ΔTm [3]: 5.4 °C
TEAD2 ΔTm [4]: 11.2 °C
IC50 [5]: < 100 nM

CNC(=O)[C@@H]1CC1c1cc(Oc2ccc(C(F)(F)F)cc2)cc2c1cnn2C (mixture of isomers) [Example 36]
TEAD1 ΔTm [1]: 6.8 °C
TEAD4 ΔTm [2]: 4.3 °C
TEAD3 ΔTm [3]: 4.6 °C
TEAD2 ΔTm [4]: 12.9 °C
IC50 [5]: < 100 nM

CNC(=O)[C@@H]1CC1c1cc(OCc2ccc(C(F)(F)F)cc2)cc2c1cnn2C (mixture of isomers) [Example 37]
TEAD1 ΔTm [1]: 0.2 °C
TEAD4 ΔTm [2]: 0.1 °C
TEAD3 ΔTm [3]: 0.1 °C
TEAD2 ΔTm [4]: 0.9 °C
IC50 [5]: 1000 to 30000 nM

CNC(=O)[C@@H]1CC1c1cc(-c2ccc(C(F)(F)F)cc2)cc2cccnc12 (mixture of isomers) [Example 38]
TEAD1 ΔTm [1]: 1.1 °C
TEAD4 ΔTm [2]: 0.2 °C
TEAD3 ΔTm [3]: 0.5 °C
TEAD2 ΔTm [4]: 0.8 °C
IC50 [5]: 100 to 500 nM

CNC(=O)[C@@H]1CC1c1cc(-c2ccc(C(F)(F)F)cc2)cc2scnc12 (mixture of isomers) [Example 39]
TEAD1 ΔTm [1]: 0 °C
TEAD4 ΔTm [2]: 0 °C
TEAD3 ΔTm [3]: 0 °C
TEAD2 ΔTm [4]: 0 °C
IC50 [5]: 1000 to 30000 nM

CNS(=O)(=O)[C@@H]1CC1c1cc(Oc2ccc(C(F)(F)F)cc2)cc2cn(C)nc12 (mixture of isomers) [Example 51]
TEAD1 ΔTm [1]: 7.5 °C
TEAD4 ΔTm [2]: 9.1 °C
TEAD3 ΔTm [3]: 10.6 °C
TEAD2 ΔTm [4]: 9.7 °C
IC50 [5]: 1000 to 30000 nM

CC(C)NC(=O)[C@@H]1CC1c1cc(Oc2ccc(C(F)(F)F)cc2)cc2cn(C)nc12 (mixture of isomers) [Example 56]
TEAD1 ΔTm [1]: 8.3 °C
TEAD4 ΔTm [2]: 8.6 °C
TEAD3 ΔTm [3]: 7.2 °C
TEAD2 ΔTm [4]: 9 °C
IC50 [5]: < 100 nM

CC(NC(=O)[C@@H]1CC1c1cc(Oc2ccc(C(F)(F)F)cc2)cc2cn(C)nc12)c1ccccn1 (mixture of isomers) [Example 57]
TEAD1 ΔTm [1]: 7.6 °C
TEAD4 ΔTm [2]: 14 °C
TEAD3 ΔTm [3]: 12.4 °C
TEAD2 ΔTm [4]: 9.4 °C
IC50 [5]: 100 to 500 nM

CNC(=O)[C@@H]1CC1c1cc(Oc2ccc(C(F)(F)F)cc2)cc2cn(C3CC3)nc12 (mixture of isomers) [Example 78]
TEAD1 ΔTm [1]: 9.2 °C
TEAD4 ΔTm [2]: 6.6 °C
TEAD3 ΔTm [3]: 0.4 °C
TEAD2 ΔTm [4]: 11.1 °C
IC50 [5]: 100 to 500 nM

CNC(=O)[C@@H]1CC1c1cc(Oc2ccc(C(F)(F)F)cc2)cc2cn(C(F)F)nc12 (mixture of isomers) [Example 79]
TEAD1 ΔTm [1]: 8.1 °C
TEAD4 ΔTm [2]: 7.7 °C
TEAD3 ΔTm [3]: 1.0 °C
TEAD2 ΔTm [4]: 12.3 °C
IC50 [5]: 100 to 500 nM

CNC(=O)[C@@H]1CC1c1cc(Oc2ccc(C(F)(F)F)cc2)cc2cccnc12 (mixture of isomers) [Example 80]
TEAD1 ΔTm [1]: 6.0 °C
TEAD4 ΔTm [2]: 6.2 °C
TEAD3 ΔTm [3]: 5.1 °C
TEAD2 ΔTm [4]: 10.5 °C
IC50 [5]: 100 to 500 nM

CNS(=O)(=O)[C@@H]1CC1c1cc(Oc2ccc(C(F)(F)F)cc2)cc2cccnc12 (mixture of isomers) [Example 81]
TEAD1 ΔTm [1]: 5.5 °C
TEAD4 ΔTm [2]: 8.2 °C
TEAD3 ΔTm [3]: 8.9 °C
TEAD2 ΔTm [4]: 9.6 °C
IC50 [5]: 500 to 1000 nM

Cn1cc2cc(OC3CC4(C3)CC(F)(F)C4)cc(C3C[C@H]3C(=O)O)c2n1 (mixture of isomers) [Example 93]
TEAD1 ΔTm [1]: 6.7 °C
TEAD4 ΔTm [2]: 6.4 °C
TEAD3 ΔTm [3]: 1.3 °C
TEAD2 ΔTm [4]: 9.3 °C
IC50 [5]: 100 to 500 nM

CNC(=O)[C@@H]1CC1c1cc(OC2CC3(C2)CC(F)(F)C3)cc2cn(C)nc12 (mixture of isomers) [Example 94]
TEAD1 ΔTm [1]: 3.3 °C
TEAD4 ΔTm [2]: 2.6 °C
TEAD3 ΔTm [3]: 0.7 °C
TEAD2 ΔTm [4]: 6.5 °C
IC50 [5]: 100 to 500 nM

O=C(O)[C@@H]1C[C@H]1c1cc(Oc2ccc(C(F)(F)F)cc2)cc2c1NCCC2 (racemic) [Example 144]
TEAD1 ΔTm [1]: 10.6 °C
TEAD4 ΔTm [2]: 9.9 °C
TEAD3 ΔTm [3]: 13.1 °C
TEAD2 ΔTm [4]: 18.2 °C
IC50 [5]: 1000 to 30000 nM

CNC(=O)[C@@H]1C[C@H]1c1cc(Oc2ccc(C(F)(F)F)cc2)cc2c1NCCC2 (racemic) [Example 145]
TEAD1 ΔTm [1]: 4.8 °C
TEAD4 ΔTm [2]: 2.9 °C
TEAD3 ΔTm [3]: 1.0 °C
TEAD2 ΔTm [4]: 9.9 °C
IC50 [5]: 100 to 500 nM

CNS(=O)(=O)[C@@H]1C[C@H]1c1cc(Oc2ccc(C(F)(F)F)cc2)cc2c1NCCC2 (racemic) [Example 146]
TEAD1 ΔTm [1]: 5.5 °C
TEAD4 ΔTm [2]: 6.7 °C
TEAD3 ΔTm [3]: 1.0 °C
TEAD2 ΔTm [4]: 12.0 °C
IC50 [5]: 100 to 500 nM
